What was measured:
Erk1/2 = assay: Western blot of Erk1/2 phosphorylation in LnCAP cells; format: cell-based, human; settings: for DHT-induced Erk1/2 phosphorylation: inhibitor 30 min (100 nM flutamide, 20 μM AG1478, 5 μM Erlotinib, 20 μM PP2, 20 μM galardin) before 25 nM DHT 30 min
Protocol: Thereafter, cells were treated with vehicle (0.1% DMSO) or inhibitors Galardin, PP2, AG1478 (Calbiochem), flutamide, or erlotinib (Sigma) for 30 minutes before stimulation with 0.1% ethanol (vehicle) or 25 nM DHT for 30 minutes.
PC3 or LnCAP cells were treated with non-targeting siRNA pool (ThermoFisher Scientific) or paxillin-specific siRNA according to manufacturer's instructions. Two sets of human paxillin siRNAs were used: 1) human paxillin siRNA (Santa Cruz Biotechnology) containing three target-specific 20-25 nucleotide siRNAs or 2) human paxillin siRNA ON-TARGET plus SMARTpoo1 (ThemoFisher Scientific) containing four siRNAs targeting the paxillin mRNA. […] For experiments involving constitutively active (“CA”) Raf (William Walker, University of Pittsburgh) or MEK (Melanie Cobb, University of Texas Southwestern Medical Center), cells were co-transfected with paxillin or nonspecific siRNAs and cDNAs encoding caRaf or caMEK.

Src = assay: Western blot of Src phosphorylation in LnCAP cells; format: cell-based, human; settings: 20 μM, 30 min before 25 nM DHT
Protocol: (§1) LnCAP and PC3 cell lines were obtained from ATCC and cultured in RPMI 1640 medium (Invitrogen) containing 10% FBS and 1% penicillin-streptomycin. For experiments involving pharmacological inhibitors, cells were treated overnight with serum-free, phenol red-free RPMI 1640 media. Thereafter, cells were treated with vehicle (0.1% DMSO) or inhibitors Galardin, PP2, AG1478 (Calbiochem), flutamide, or erlotinib (Sigma) for 30 minutes before stimulation with 0.1% ethanol (vehicle) or 25 nM DHT for 30 minutes.
(§2) Western blots were performed as described (Evaul and Hammes, “Cross-Talk Between G Protein-Coupled and Epidermal Growth Factor Receptors Regulates Gonadotropin-Mediated Steroidogenesis in Leydig Cells,” J. Biol. Chem. 283(41):27525-27533 (2008), which is hereby incorporated by reference in its entirety). Primary antibodies were: paxillin, paxillinphospho-Tyr118, paxillin-phospho-Tyr31, Akt1/2/3, Akt1/2/3 phospho-Ser473, EGFR at 1:1000 dilution, and EGFR phospho-Tyr845 (1:500) (Santa Cruz Biotechnology); paxillin phospho-Ser126 (Invitrogen); paxillin phospho-Ser83 (ECM Biosciences); p44/42-Erk1/2, phospho-p44/42-Erk1/2 (Thr202/[…]), phospho-Ser217/221-MEK1/2, src, src-phospho-Tyr416 (Cell Signaling Technology) at 1:1000 dilutions and f3-actin (1:5000, Millipore).

paxillin [1] = assay: Western blot of paxillin phosphorylation in LnCAP cells; format: cell-based, human; settings: for DHT-induced paxillin phosphorylation at all four sites (tyrosines 31/118, serines 83/126): AG1478 or 20 μM PP2 before DHT
Protocol: as §1, §2

PSA mRNA = PSA mRNA expression by real time PCR in LnCAP cells; format: cell-based, human; settings: 20 μM U0126 or 20 μM AG1478 30 minutes before 25 nM DHT 24 hours
Protocol: RNA was isolated with the RNeasy mini kit (Qiagen) according to manufacturer's instructions. Levels of Kallikrein-related peptidase-3 (KLK3, or prostate-specific antigen (“PSA”)), paxillin, cyclin D1, and GAPDH expression were analyzed by the A/A-Ct method using Taqman gene expression assay primers (assay ID# Hs99999905_ml-GAPDH, Hs02576345_ml-KLK3, Hs99999004_ml-CCND1, and Hs01104424-ml-PXN; Applied Biosystems) on an ABI StepOne plus real-time PCR machine.

MEK = settings: MLTC cells; 20 μM; cited from earlier work
EGFR = EGFR transactivation assay in A431 cells; format: cell-based
Protocol: A431 cells were used to detect DHT-mediated release of EGFR ligands from LnCAP cells. A431 cells (ATCC) were cultured in DMEM/F-12 (1:1) medium (Invitrogen) containing 10% FBS and 1% penicillin-streptomycin, serum-starved overnight, and then stimulated with medium from DHT−, DHT+Galardin−, or vehicle (0.1% ethanol)-treated LnCAP cells for 60 minutes. As controls, A431 cells were stimulated with DHT or media alone. Thereafter, A431 cells were isolated for Western blot analysis to detect phosphorylated and total EGFR.

LnCAP cells = assay: MTT cell proliferation assay, LnCAP cells; format: cell-based, human
Protocol: PC3 or LnCAP cells were treated with non-targeting siRNA pool (ThermoFisher Scientific) or paxillin-specific siRNA according to manufacturer's instructions. Two sets of human paxillin siRNAs were used: 1) human paxillin siRNA (Santa Cruz Biotechnology) containing three target-specific 20-25 nucleotide siRNAs or 2) human paxillin siRNA ON-TARGET plus SMARTpoo1 (ThemoFisher Scientific) containing four siRNAs targeting the paxillin mRNA. The latter was used for all experiments described in the accompanying Examples, although results were similar with both pools. For experiments involving constitutively active (“CA”) Raf (William Walker, University of Pittsburgh) or MEK (Melanie Cobb, University of Texas Southwestern Medical Center), cells were co-transfected with paxillin or nonspecific siRNAs and cDNAs encoding caRaf or caMEK. After 72 hours, cells were treated overnight with serum-free, phenol red-free RPMI 1640 media and stimulated with 0.1% ethanol/DMSO (vehicle), 25 nM DHT (Steraloids), 20 ng/ml EGF (BD Biosciences), or 100 nM PMA (Sigma) for the times indicated for Western blots or 24 hours for MTT assays.
MTT assays were performed using a colorimetric assay cell proliferation kit (Roche Applied Science) according to the manufacturer's instructions.

androgen receptors (AR) = assay: Androgen receptor nuclear localization by fluorescence imaging; format: cell-based
Protocol: Cellular staining was carried out using fluorescence imaging for androgen receptors (AR) and DAPI. […] Furthermore, knockdown and rescue experiments confirm that phosphoserine-paxillin is the moiety regulating AR translocation to the nucleus, since the mutant lacking the Erk serine targets (S A) cannot sustain AR nuclear localization (FIG. 17F versus 17E). Importantly, leptomycin B, which prevents nuclear export through CRM, rescues the nuclear localization of the AR in paxillin-knockdown cells stimulated with DHT (FIG. 17D). […] The latter allows the AR to remain in the nucleus, bind DNA, and promote transcription.

paxillin [2] = assay: Subcellular localization of paxillin and phosphoserine-paxillin; format: cell-based; settings: upon stimulation with DHT or EGF
Source text: The subcellular localization of paxillin versus phosphoserine-paxillin was first examined. As expected, paxillin is localized primarily in the cytoplasm in resting cells (FIG. 14, unstimulated). […] This confirms the model of FIG. 9C, which posits that phosphoserine-paxillin regulates nuclear processes. Therefore, a common AR-mediated transcriptional event was examined: expression of PSA mRNA. […] Furthermore, knockdown of endogenous paxillin in LnCAP cells prevented DHT-induced induction of PSA mRNA expression and promoter activity (FIGS. 9A and 15). […] Together, these studies further emphasize that paxillin regulates cross-talk between extranuclear kinase signaling and intranuclear transcription.

paxillin [3] = assay: Western blot of paxillin phosphorylation in PC3 cells; format: cell-based, human; settings: PMA 100 nM or EGF 20 ng/ml, 30 minutes
Protocol: FIGS. 8A-D illustrate that PMA-mediated Erk1/2 activation is paxillin-independent, but PMA-mediated proliferation still requires serine phosphorylation of paxillin. In FIG. 8A, paxillin (Pax) or non-targeting (Nsp) siRNA-treated LnCAP cells were serum-starved and treated with PMA (100 nM) or EGF (20 ng/ml) for 30 minutes. Western blots were performed for paxillin and total and phosphorylated Erk1/2. In FIG. 8B, serum-starved PC3 cells were pretreated with 0.1% DMSO or 20 μM U0126 ([…]) for 30 minutes before stimulation with PMA (100 nM) or EGF (20 ng/ml) for another 30 minutes. Thereafter, levels of paxillin and phosphorylated paxillin at tyrosine-118 (Pax p-Y118) and serine-126 (Pax p-S126) were detected by Western blot. In FIG. 8C, cell proliferation (MTT assay) of PC3 cells treated (24 hours) with 0.1% DMSO (M) or 100 nM PMA in the presence or absence of 20 μM U0126. In FIG. 8D, PC3 cells were initially transfected with Paxillin (Pax) or non-targeting (Nsp) siRNA. After 96 hours, media were removed, and cells were then either mock-transfected or transfected with wild-type paxillin (left panel) or paxillin mutated at tyrosines 31/118 (Y31A/Y118A, middle panel) or serines 83/126/130 (S83A/S126A/S130A, right panel). […] Cell proliferation was detected by MTT. […]

[4] = target: prostate-specific membrane antigen (PSMA) (Homo sapiens, UniProt Q04609); settings: cited from earlier work
Sequence of prostate-specific membrane antigen (PSMA) (Q04609 whole entry): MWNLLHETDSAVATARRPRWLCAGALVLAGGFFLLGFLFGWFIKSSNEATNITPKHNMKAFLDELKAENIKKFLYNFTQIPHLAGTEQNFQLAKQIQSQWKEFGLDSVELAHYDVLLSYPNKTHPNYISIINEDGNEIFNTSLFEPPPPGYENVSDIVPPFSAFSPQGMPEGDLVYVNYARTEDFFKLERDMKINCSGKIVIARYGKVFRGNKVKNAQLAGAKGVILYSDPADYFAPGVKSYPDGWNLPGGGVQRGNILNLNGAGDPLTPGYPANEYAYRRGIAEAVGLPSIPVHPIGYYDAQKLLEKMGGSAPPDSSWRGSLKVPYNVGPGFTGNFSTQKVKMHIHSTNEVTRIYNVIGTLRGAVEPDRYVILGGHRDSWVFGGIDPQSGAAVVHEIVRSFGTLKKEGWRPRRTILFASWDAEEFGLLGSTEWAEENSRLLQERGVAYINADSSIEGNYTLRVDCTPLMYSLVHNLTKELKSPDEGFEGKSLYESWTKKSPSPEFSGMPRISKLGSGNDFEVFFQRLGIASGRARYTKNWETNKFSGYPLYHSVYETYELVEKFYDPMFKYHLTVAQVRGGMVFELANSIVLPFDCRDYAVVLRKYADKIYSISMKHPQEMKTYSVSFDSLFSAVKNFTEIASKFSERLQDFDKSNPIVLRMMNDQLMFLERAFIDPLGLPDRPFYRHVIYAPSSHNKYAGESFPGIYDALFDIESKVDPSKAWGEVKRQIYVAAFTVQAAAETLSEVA

COc1cc2ncnc(Nc3cccc(Cl)c3)c2cc1OC [AG1478]
EGF-induced Erk activation (Erk1/2; 20 μM AG1478, EGF 20 ng/ml): specifically blocks
FGF-induced Erk activation (Erk1/2; 20 μM AG1478, FGF 25 ng/ml): does not block
DHT-induced Erk1/2 phosphorylation (Erk1/2): blocked
DHT-induced Src phosphorylation (Src): blocked
DHT-induced paxillin phosphorylation at all four sites (tyrosines 31/118, serines 83/126) (paxillin [1]): abrogated
DHT-induced expression of PSA mRNA (PSA mRNA): abrogated
EGF but not FGF-induced MEK activation (MEK): specifically blocks

C[C@]12CCC(=O)C[C@@H]1CC[C@@H]1[C@@H]2CC[C@]2(C)[C@@H](O)CC[C@@H]12 [DHT]
Erk1/2 activation from 15 to 120 minutes (Erk1/2; 25 nM DHT or 20 ng/ml EGF): induced
Erk1/2 phosphorylation/activation (Erk1/2; 25 nM DHT, 30 minutes): significantly induced
EGF receptor activation in A431 cells, direct stimulation (EGFR; DHT alone (25 nM), no LnCAP cells): did not promote
EGF receptor phosphorylation in A431 cells by medium from treated LnCAP cells (EGFR; medium from 25 nM DHT-treated LnCAP cells, 60 minutes): increased
LnCAP proliferation by both MTT and BrdU incorporation (LnCAP cells; 0.1-100 nM DHT): promoted
cell proliferation (MTT) (LnCAP cells; LnCAP, DHT 25 nM or EGF 20 ng/ml, 24 hours): significantly stimulated
phosphorylation of paxillin at tyrosines 31/118 and serines 83/126 (paxillin [1]; 25 nM DHT, 30 minutes): triggered
AR nuclear localization (androgen receptors (AR); DHT-treatment): promotes
localization of total paxillin (T-Pax) (paxillin [2]): relocalizes the nucleus
share of phosphoserine-paxillin (PS-PAX) in the nucleus (paxillin [2]): nearly all

C#Cc1cccc(Nc2ncnc3cc(OCCOC)c(OCCOC)cc23)c1 [Erlotinib]
DHT-induced Erk1/2 phosphorylation (Erk1/2): blocked

CCCCCCCCCCCCCC(=O)O[C@@H]1[C@@H](C)[C@@]2(O)[C@@H](C=C(CO)C[C@]3(O)C(=O)C(C)=C[C@@H]23)[C@@H]2C(C)(C)[C@]12OC(C)=O [PMA]
paxillin phosphorylation (tyrosine and serine) (paxillin [3]): only promoted serine phosphorylation

CC(C)(C)n1nc(-c2ccc(Cl)cc2)c2c(N)ncnc21 [PP2]
DHT-induced Erk1/2 phosphorylation (Erk1/2): blocked
DHT-induced paxillin phosphorylation at all four sites (tyrosines 31/118, serines 83/126) (paxillin [1]): abrogated

CNC(=O)[C@H](Cc1c[nH]c2ccccc12)NC(=O)[C@@H](CC(=O)NO)CC(C)C [galardin]
DHT-induced Erk1/2 phosphorylation (Erk1/2): block
ability of medium from DHT-treated LnCAP cells to activate EGF receptor signaling in A431 cells (EGFR; 20 μM galardin added to DHT (25 nM)-treated LnCAP cells): blocked

CCC(=C/[C@H](C)C/C=C/C(C)=C/[C@@H](C)C(=O)[C@@H](C)[C@H](O)[C@@H](C)C/C(C)=C/C(=O)O)/C=C/[C@@H]1OC(=O)C=C[C@@H]1C [leptomycin B]
nuclear localization of the AR in paxillin-knockdown cells stimulated with DHT (androgen receptors (AR); leptomycin B prevents nuclear export through CRM): rescues

Aptamer A10-3: RNA aptamer which binds specifically to PSMA (GGGAGGACGAUGCGGAUCAGCCAUGUUUACGUCACUCCUUGUCAAUCCUCAUCGGC; listed as RNA, chemistry not given here)
binding to PSMA [4]: binds specifically

B1: Aptamer A10: RNA aptamer which binds specifically to PSMA (nucleic acid)
chain: GGGAGGACGAUGCGGAUCAGCCAUGUUUACGUCACUCCUUGUCAAUCCUCAUCGGCAGACGACUCGCCCGA
modifications: listed as RNA, chemistry not given here
binding to PSMA [4]: binds specifically

B2: Aptamer A9: RNA aptamer which binds specifically to PSMA (nucleic acid)
chain: GGGAGGACGAUGCGGACCGAAAAAGACCUGACUUCUAUACUAAGUCUACGUUCCCAGACGACUCGCCCGA
modifications: listed as RNA, chemistry not given here
binding to PSMA [4]: binds specifically
